{"source": "patent US11767320B2", "about": "“Bicyclic dione compounds as inhibitors of KRAS” (INCYTE CORPORATION, priority 2020, dated 2023)", "key": {"[1]": {"test_system": "MIA PaCa-2 cells (KRAS G12C)", "test": "Whole blood pERK1/2 HTRF assay", "format": "cell-based", "settings": "Homo sapiens, compound in whole blood, 4 hours, phospho-ERK 1/2 HTRF, read-out: G12C_WB_pERK assay IC50", "procedure": "MIA PaCa-2 cells (KRAS G12C; ATCC® CRL-1420) and HPAF-II (KRAS G12D; ATCC® CRL-1997) are maintained in RPMI 1640 with 10% FBS (Gibco/Life Technologies). The cells are seeded into 96 well tissue culture plates (Corning #3596) at 25000 cells per well in 100 uL media and cultured for 2 days at 37° C. 5% CO2 so that they are approximately 80% confluent at the start of the assay. Whole Blood are added to the 1 uL dots of compounds (prepared in DMSO) in 96 well plates and mixed gently by pipetting up and down so that the concentration of the compound in blood is 1× of desired concentration. The media is aspirated from the cells and 50 uL per well of whole blood with G12C or G12D compound is added and incubated for 4 or 2 hours respectively at 37° C. 5% CO2. After dumping the blood, the plates are gently washed twice by adding PBS to the side of the wells and dumping the PBS from the plate onto a paper towel, tapping the plate to drain well. 50 ul/well of 1× lysis buffer #1 (Cisbio) with blocking reagent (1:25) (Cisbio) is then added and incubated at room temperature for 30 minutes with shaking (250 rpm). Following lysis, 16 uL of lysate is transferred into 384-well Greiner small volume white plate using an Assist Plus (Integra Biosciences, NH). 4 uL of 1:1 mixture of anti Phospho-ERK 1/2 d2 and anti Phospho-ERK 1/2 Cryptate (Cisbio) is added to the wells using the Assist Plus and incubated at room temperature overnight in the dark. Plates are read on the Pherastar plate reader at 665 nm and 620 nm wavelengths. IC50 determination is performed by fitting the curve of inhibitor percent inhibition versus the log of the inhibitor concentration using the GraphPad Prism 7 software."}, "[2]": {"target": "KRAS G12C (Homo sapiens, UniProt P01116, G12C)", "sequence (P01116 1-188 isoform P01116-2 G12C)": "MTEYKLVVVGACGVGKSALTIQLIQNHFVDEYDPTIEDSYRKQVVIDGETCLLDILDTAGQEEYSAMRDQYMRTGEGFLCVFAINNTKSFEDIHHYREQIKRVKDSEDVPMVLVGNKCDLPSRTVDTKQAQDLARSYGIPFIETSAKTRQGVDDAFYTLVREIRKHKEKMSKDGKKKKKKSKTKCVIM", "test": "GDP-GTP exchange assay (fluorescence based guanine nucleotide exchange, bodipy-GDP for GppNHp, SOS1)", "format": "biochemical", "settings": "bodipy-loaded KRAS G12C, 2 hours pre-incubation with inhibitor, read-out: G12C_exchange (KRAS_G12C exchange assay IC50)", "procedure,_shortened": "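Bodipy-GDP-loaded KRAS G12C (5-25 nM final) pre-incubated 2 h with inhibitor in Hepes pH 7.5, MgCl2 buffer, then exchange started with 500 uM GppNHp and 150 nM SOS1 for 2 h at ambient temperature. G12D and G12V used 2.5 nM protein, with 4 h and 3 h exchange respectively. Fluorescence read at 485/520 nm; IC50 from four-parameter logistic fit.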"}, "[3]": {"test_system": "MIA PaCa-2 (KRAS G12C) cells", "test": "Cellular pERK HTRF assay", "format": "cell-based", "settings": "Homo sapiens; MIA PaCa-2 cells, 4 hours, phospho-ERK 1/2 HTRF; read-out: G12C_pERK (KRAS_G12C pERK assay IC50)", "procedure": "MIA PaCa-2 (KRAS G12C; ATCC® CRL-1420), A427 (KRAS G12D; ATCC® HTB53), HPAF-II (KRAS G12D; ATCC® CRL-1997) and NCI-H838 (KRAS WT; ATCC® CRL-5844) cells are purchased from ATCC and maintained in RPMI 1640 media supplemented with 10% FBS (Gibco/Life Technologies). The cells are plated at 5000 cells per well (8 uL) into Greiner 384-well low volume, flat-bottom, tissue culture treated white plates and incubated overnight at 37° C. 5% CO2. The next morning, test compound stock solutions are diluted in media at 3× the final concentration, and 4 uL are added to the cells. The plate is mixed by gentle rotation for 30 seconds (250 rpm) at room temperature. The cells are incubated with the KRAS G12C and G12D compounds for 4 hours or 2 hours respectively at 37° C., 5% CO2.\n4 uL of 4× lysis buffer with blocking reagent (1:25) (Cisbio) are added to each well and plates are rotated gently (300 rpm) for 30 minutes at room temperature. 4 uL per well of Cisbio anti Phospho-ERK 1/2 d2 is mixed with anti Phospho-ERK 1/2 Cryptate (1:1) are added to each well, mixed by rotation and incubated overnight in the dark at room temperature. Plates are read on the Pherastar plate reader at 665 nm and 620 nm wavelengths. IC50 determination is performed by fitting the curve of inhibitor percent inhibition versus the log of the inhibitor concentration using the GraphPad Prism 7 software."}}}
{"molecule": "C=CC(=O)N1CC(F)(Cn2c(=O)c(=O)n(-c3c(C(C)C)ccnc3C(C)C)c3nc(-c4c(Cl)cccc4OC)c(Cl)cc32)C1", "note": "[Example 62, 1-((1-acryloyl-3-fluoroazetidin-3-yl)methyl)-7-chloro-6-(2-chloro-6-methoxyphenyl)-4-(2,4-diisopropylpyridin-3-yl)-1,4-dihydropyrido[2,3-b]pyrazine-2,3-dione]", "values": [{"measurement": "IC50", "setting": "[1]", "result": "≤ 100", "unit": "nM"}, {"measurement": "IC50", "setting": "[2]", "result": "≤ 100", "unit": "nM"}, {"measurement": "IC50", "setting": "[3]", "result": "≤ 100", "unit": "nM"}]}
{"molecule": "C=CC(=O)N1CC(F)(Cn2c(=O)c(=O)n(-c3c(C(C)C)ccnc3C(C)C)c3nc(-c4c(O)cccc4Cl)c(Cl)cc32)C1", "note": "[Example 61, 1-((1-acryloyl-3-fluoroazetidin-3-yl)methyl)-7-chloro-6-(2-chloro-6-hydroxyphenyl)-4-(2,4-diisopropylpyridin-3-yl)-1,4-dihydropyrido[2,3-b]pyrazine-2,3-dione]", "values": [{"measurement": "IC50", "setting": "[1]", "result": "≤ 100", "unit": "nM"}, {"measurement": "IC50", "setting": "[2]", "result": "≤ 100", "unit": "nM"}, {"measurement": "IC50", "setting": "[3]", "result": "≤ 100", "unit": "nM"}]}
{"molecule": "C=C(F)C(=O)N1CC(F)(Cn2c(=O)c(=O)n(-c3c(C(C)C)ccnc3C(C)C)c3nc(-c4c(O)cccc4Cl)c(Cl)cc32)C1", "note": "[Example 64, 7-chloro-6-(2-chloro-6-hydroxyphenyl)-4-(2,4-diisopropylpyridin-3-yl)-1-((3-fluoro-1-(2-fluoroacryloyl)azetidin-3-yl)methyl)-1,4-dihydropyrido[2,3-b]pyrazine-2,3-dione]", "values": [{"measurement": "IC50", "setting": "[1]", "result": "100 to 1000", "unit": "nM"}, {"measurement": "IC50", "setting": "[2]", "result": "≤ 100", "unit": "nM"}, {"measurement": "IC50", "setting": "[3]", "result": "≤ 100", "unit": "nM"}]}
{"molecule": "C=CC(=O)N1CC(F)(Cn2c(=O)c(=O)n(-c3c(C)ccnc3C(C)C)c3nc(-c4c(Cl)ccc5c4OCO5)c(Cl)cc32)C1", "note": "[Example 60, 1-((1-acryloyl-3-fluoroazetidin-3-yl)methyl)-7-chloro-6-(5-chlorobenzo[d][1,3]dioxol-4-yl)-4-(2-isopropyl-4-methylpyridin-3-yl)-1,4-dihydropyrido[2,3-b]pyrazine-2,3-dione]", "values": [{"measurement": "IC50", "setting": "[1]", "result": "100 to 1000", "unit": "nM"}, {"measurement": "IC50", "setting": "[2]", "result": "≤ 100", "unit": "nM"}, {"measurement": "IC50", "setting": "[3]", "result": "≤ 100", "unit": "nM"}]}
{"molecule": "C=CC(=O)N1CC(F)(Cn2c(=O)c(=O)n(-c3c(C)ccnc3C(C)C)c3nc(-c4c(C)cccc4OC)c(Cl)cc32)C1", "note": "[Example 58, 1-((1-acryloyl-3-fluoroazetidin-3-yl)methyl)-7-chloro-4-(2-isopropyl-4-methylpyridin-3-yl)-6-(2-methoxy-6-methylphenyl)-1,4-dihydropyrido[2,3-b]pyrazine-2,3-dione]", "values": [{"measurement": "IC50", "setting": "[1]", "result": "100 to 1000", "unit": "nM"}, {"measurement": "IC50", "setting": "[2]", "result": "≤ 100", "unit": "nM"}, {"measurement": "IC50", "setting": "[3]", "result": "≤ 100", "unit": "nM"}]}
{"molecule": "C=CC(=O)N1CC(F)(Cn2c(=O)c(=O)n(-c3c(C)ccnc3C(C)C)c3nc(-c4c(Cl)cccc4OC)c(Cl)cc32)C1", "note": "[Example 57, 1-((1-acryloyl-3-fluoroazetidin-3-yl)methyl)-7-chloro-6-(2-chloro-6-methoxyphenyl)-4-(2-isopropyl-4-methylpyridin-3-yl)-1,4-dihydropyrido[2,3-b]pyrazine-2,3-dione]", "values": [{"measurement": "IC50", "setting": "[1]", "result": "≤ 100", "unit": "nM"}, {"measurement": "IC50", "setting": "[2]", "result": "≤ 100", "unit": "nM"}, {"measurement": "IC50", "setting": "[3]", "result": "≤ 100", "unit": "nM"}]}
{"molecule": "C=CC(=O)N1CC(F)(Cn2c(=O)c(=O)n(-c3c(C)ccnc3C(C)C)c3nc(-c4c(Cl)cccc4CO)c(Cl)cc32)C1", "note": "[Example 59, 1-((1-acryloyl-3-fluoroazetidin-3-yl)methyl)-7-chloro-6-(2-chloro-6-(hydroxymethyl)phenyl)-4-(2-isopropyl-4-methylpyridin-3-yl)-1,4-dihydropyrido[2,3-b]pyrazine-2,3-dione]", "values": [{"measurement": "IC50", "setting": "[1]", "result": "100 to 1000", "unit": "nM"}, {"measurement": "IC50", "setting": "[2]", "result": "≤ 100", "unit": "nM"}, {"measurement": "IC50", "setting": "[3]", "result": "≤ 100", "unit": "nM"}]}
{"molecule": "C=CC(=O)N1CC(F)(Cn2c(=O)c(=O)n(-c3c(C(C)C)ccnc3C(C)C)c3nc(-c4c(C)cccc4OC)c(Cl)cc32)C1", "note": "[Example 63]", "values": [{"measurement": "IC50", "setting": "[1]", "result": "≤ 100", "unit": "nM"}, {"measurement": "IC50", "setting": "[2]", "result": "≤ 100", "unit": "nM"}, {"measurement": "IC50", "setting": "[3]", "result": "≤ 100", "unit": "nM"}]}
{"molecule": "C=CC(=O)N1CC(F)(Cn2c(=O)c(=O)n(-c3c(C)ccnc3C(C)C)c3nc(-c4c(O)cccc4Cl)c(Cl)cc32)C1", "note": "[Example 56, 1-((1-acryloyl-3-fluoroazetidin-3-yl)methyl)-7-chloro-6-(2-chloro-6-hydroxyphenyl)-4-(2-isopropyl-4-methylpyridin-3-yl)-1,4-dihydropyrido[2,3-b]pyrazine-2,3-dione]", "values": [{"measurement": "IC50", "setting": "[1]", "result": "≤ 100", "unit": "nM"}, {"measurement": "IC50", "setting": "[2]", "result": "≤ 100", "unit": "nM"}, {"measurement": "IC50", "setting": "[3]", "result": "≤ 100", "unit": "nM"}]}
